Test results as given in patent EP2926811A1, “ARTEMETHER-CONTAINING PHARMACEUTICAL COMPOSITION, PREPARATION, AND USE THEREOF” (Kunming Pharmaceutical Corp., priority 2012, dated 2014).
Read-outs that look alike come from different tables or passages of the source.

Legend:
Assay type in all cases: cell-based
[1] = system: K562 cells; experiment: modified MTT method, proliferation of K562 cells; conditions: Homo sapiens, read-out: IC50 on the growth of K562 cells
Description: (§1) Five test concentrations 2, 10, 50, 250 and 500 µM were set for each of five derivatives of artemisinin, artemether drug substance, artemisinin, dihydroartemisinin, artesunate were dissolved with dimethyl sulfoxide (DMSO), while the lyophilized powder of artemether was dissolved with normal saline (N.S.), followed by addition of a certain amount of RPMI 1640 complete culture solution to formulate a high-concentration solution, and each of the low-concentration solutions was formulated by proportionate dilution from the high-concentration solution.
(§2) The concentrations of DMSO contained in the solutions at the two relatively high concentrations 500 and 250 µM for the artemether drug substance, artemisinin, dihydroartemisinin, artesunate, used as solvent controls, were formulated with […] culture solution, at which time the test concentrations of DMSO were 1% and 0.5%. The concentrations of the excipients contained in the solutions at the two relatively high concentrations 500 and 250 µM for the preparation of lyophilized powder of artemether were used as solvent controls.
(§3) The positive control was an anti-cancer drug adriamycin (ADM), which was set at three test concentrations (final concentrations) of 0.1, 1 and 10 µg/ml. To ADM stock solution (1 mg/ml) a certain amount of PRMI 1640 complete culture solution was added, to formulate a high-concentration solution, and each of the low-concentration solutions were formulated by proportionate dilutions from the high-concentration solution.
(§4) HL-60: (human promyelocytic leukemia cell line); K562 (human chronic myelocytic leukemia cell line); HT-29 (human colon cancer cell line); PC-3 (human prostate cancer cell line); A549 (human non-small cell lung cancer cell line); MKN-28 (human gastric cancer cell line); Hep2 (human laryngeal cancer cell line), all of which were purchased from Cell Bank of Shanghai Institutes for Biological Sciences, the Chinese Academy of Sciences.
(§5) Influence of the five test samples on the proliferation of 7 human tumor cell lines was determined via a modified MTT method.
(§6) Cells in logarithmic growth phase were taken, adjusted to a certain concentration and then added into a 96 well culture plate. After culture of adherent cells for a period until adherence, the test samples were added; and for suspension cells, the test samples were added after inoculation. 5 test concentrations 2, 10, 50, 250 and 500 µM were set, with 3 parallel wells for each concentration, 10 µl/well; the solvent controls were 0.5% and 1% of isovolumetric DMSO, and the positive controls was ADM at 3 concentrations 0.1, 1 and 10 µg/ml. The samples were loaded followed by culture for a period of time in an incubator at 37°C, 5% CO2, followed by addition of MTT (5 mg/ml) at 20 µl/well, and continued to be cultured for a period of time and added with a three-combined solution [10% SDS - 5% isobutanol - 0.012 mol/L HCl (W/V/V)]. After dissolving in uniformity, it was continued to be placed in the incubator at 37°C, 5% CO2 for a period of time, and the OD value of each well was determined under a wavelength of 570 nm with a microplate reader, according to which the results were calculated.
(§7) The cellular proliferation inhibition rate was calculated in accordance with the following equation: Inhibition rate (%) = (OD valuecontrol well-OD valuesample well)/OD valuecontrol well × 100% [formula]
(§8) When the inhibition rate of DMSO on cells was more than 15%, calculation was carried out using the following equation: Inhibition rate (%) = (OD valuesolvent group-OD valueadministered well)/OD valuesolvent group × 100% [formula]
(§9) The inhibition rate was calculated by using Microsoft Excel 2003, and median inhibitory concentration IC50 was calculated with a LOGIT method, which was used as an indicator for judging the inhibitory capability.

[2] = system: HL-60 cells; experiment: modified MTT method, proliferation of HL-60 cells; conditions: Homo sapiens, read-out: IC50 on the growth of HL-60 cells
Description: as §1, §2, §3, §4, §5, §6, §7, §8, §9

[3] = system: A549 cells; experiment: modified MTT method, proliferation of A549 cells; conditions: Homo sapiens, read-out: IC50 on the growth of A549 cells
Description: as §1, §2, §3, §4, §5, §6, §7, §8, §9

[4] = system: HT-29 cells; experiment: modified MTT method, proliferation of HT-29 cells; conditions: Homo sapiens
Description: as §1, §2, §3, §4, §5, §6, §7, §8, §9
(§10) According to the results of preliminary screening, further experiments were adjusted such that more sensitive cell lines were screened out. […]

[5] = system: PC-3 cells; experiment: modified MTT method, proliferation of PC-3 cells; conditions: Homo sapiens, read-out: IC50 on the growth of PC-3 cells
Description: as §1, §2, §3, §4, §5, §6, §7, §8, §9

[6] = system: MKN-28 cells; experiment: modified MTT method, proliferation of MKN-28 cells; conditions: Homo sapiens, MKN-28, 72 h, secondary screening
Description: as §1, §2, §3, §4, §5, §6, §7, §8, §9, §10

[7] = system: Hep2 cells; experiment: modified MTT method, proliferation of Hep2 cells; conditions: Homo sapiens, HEp-2, 72 h, secondary screening
Description: as §1, §2, §3, §4, §5, §6, §7, §8, §9, §10

[8] = system: 7 human tumor cell lines; experiment: modified MTT method, summary over the panel of human tumor cell lines; conditions: HL-60, K562, A549, HT-29, PC-3, MKN-28, Hep2
Description: as §4, §5
Cells in logarithmic growth phase were taken, adjusted to a certain concentration and then added into a 96 well culture plate. After culture of adherent cells for a period until adherence, the test samples were added; and for suspension cells, the test samples were added after inoculation. […] After dissolving in uniformity, it was continued to be placed in the incubator at 37°C, 5% CO2 for a period of time, and the OD value of each well was determined under a wavelength of 570 nm with a microplate reader, according to which the results were calculated.
as §9

C[C@@H]1CC[C@H]2[C@@H](C)C(=O)O[C@@H]3O[C@@]4(C)CC[C@@H]1[C@]32OO4 [artemisinin]
IC50 ([1]; K562, 24 h, Batch 1, 24 h): > 1 mM | IC50 ([1]; K562, 24 h, Batch 2, 24 h): > 1 mM | IC50 ([1]; K562, 24 h, Batch 3, 24 h): > 1 mM | IC50 ([1]; K562, 48 h, Batch 1, 48 h): > 1 mM | IC50 ([1]; K562, 48 h, Batch 2, 48 h): > 1 mM | IC50 ([1]; K562, 48 h, Batch 3, 48 h): 0.991 mM | IC50 ([1]; K562, 72 h, Batch 1, 72 h): > 1 mM | IC50 ([1]; K562, 72 h, Batch 2, 72 h): 0.518 mM | IC50 ([1]; K562, 72 h, Batch 3, 72 h): 0.449 mM | IC50 ([2]; HL-60, 24 h, Batch 1, 24 h): > 1 mM | IC50 ([2]; HL-60, 24 h, Batch 2, 24 h): 0.75 mM | IC50 ([2]; HL-60, 48 h, Batch 1, 48 h): > 1 mM | IC50 ([2]; HL-60, 48 h, Batch 2, 48 h): 0.331 mM | IC50 ([2]; HL-60, 72 h, Batch 1, 72 h): > 1 mM | IC50 ([2]; HL-60, 72 h, Batch 2, 72 h): 0.577 mM | IC50 ([3]; A549, 24 h, Batch 1, 24 h): > 1 mM | IC50 ([3]; A549, 24 h, Batch 2, 24 h): 0.421 mM | IC50 ([3]; A549, 48 h, Batch 1, 48 h): > 1 mM | IC50 ([3]; A549, 48 h, Batch 2, 48 h): > 1 mM | IC50 ([3]; A549, 72 h, Batch 1, 72 h): > 1 mM | IC50 ([3]; A549, 72 h, Batch 2, 72 h): > 1 mM | IC50 ([4]; HT-29, 24 h, preliminary screening, Batch 1, 24 h, read-out: IC50 on the growth of HT-29 cells): > 1 mM | IC50 ([4]; HT-29, 24 h, preliminary screening, Batch 2, 24 h, read-out: IC50 on the growth of HT-29 cells): > 1 mM | IC50 ([4]; HT-29, 48 h, preliminary screening, Batch 1, 48 h, read-out: IC50 on the growth of HT-29 cells): > 1 mM | IC50 ([4]; HT-29, 48 h, preliminary screening, Batch 2, 48 h, read-out: IC50 on the growth of HT-29 cells): > 1 mM | IC50 ([4]; HT-29, 72 h, preliminary screening, Batch 1, 72 h, read-out: IC50 on the growth of HT-29 cells): > 1 mM | IC50 ([4]; HT-29, 72 h, preliminary screening, Batch 2, 72 h, read-out: IC50 on the growth of HT-29 cells): > 1 mM | IC50 ([4]; HT-29, 72 h, secondary screening, 72 h, Batch 1, read-out: IC50 on the growth of HT-29 cells (72 h)): 2.35 mM | IC50 ([4]; HT-29, 72 h, secondary screening, 72 h, Batch 2, read-out: IC50 on the growth of HT-29 cells (72 h)): 0.773 mM | IC50 ([4]; HT-29, 72 h, secondary screening, 72 h, Batch 3, read-out: IC50 on the growth of HT-29 cells (72 h)): 0.437 mM | IC50 ([4]; HT-29, 72 h, secondary screening, 72 h, average, read-out: IC50 on the growth of HT-29 cells (72 h)): 0.545 mM | IC50 ([5]; PC-3, 24 h, Batch 1, 24 h): > 1 mM | IC50 ([5]; PC-3, 24 h, Batch 2, 24 h): > 1 mM | IC50 ([5]; PC-3, 48 h, Batch 1, 48 h): > 1 mM | IC50 ([5]; PC-3, 48 h, Batch 2, 48 h): > 1 mM | IC50 ([5]; PC-3, 72 h, Batch 1, 72 h): > 1 mM | IC50 ([5]; PC-3, 72 h, Batch 2, 72 h): > 1 mM | IC50 ([6]; Average, read-out: IC50 on the growth of MKN-28 cells (72 h)): 0.97 mM | IC50 ([6]; Batch 1, read-out: IC50 on the growth of MKN-28 cells (72 h)): 0.588 mM | IC50 ([6]; Batch 2, read-out: IC50 on the growth of MKN-28 cells (72 h)): 1.44 mM | IC50 ([6]; Batch 3, read-out: IC50 on the growth of MKN-28 cells (72 h)): 1.61 mM | IC50 ([7]; Batch 1, read-out: IC50 on the growth of Hep2 cells (72 h)): 0.35 mM | IC50 ([7]; Batch 2, read-out: IC50 on the growth of Hep2 cells (72 h)): 0.271 mM | IC50 ([7]; Batch 3, read-out: IC50 on the growth of Hep2 cells (72 h)): > 1 mM | IC50 ([7]; average, read-out: IC50 on the growth of Hep2 cells (72 h)): 0.952 mM | inhibitory effect on the 7 human tumor cell lines in vitro [8]: no apparent inhibitory effect
